Source: US6794387B2, “Pharmaceutically active compounds” (Pfizer Inc., priority 2001, dated 2004)

What was measured:
[1] = In vitro metabolism in human hepatic microsomal fractions (HLM half-life); type: in vitro ADME; conditions: human liver microsomes, initial substrate concentration 1 μM, 37° C.
Experimental: In vitro metabolism experiments were carried out in the hepatic microsomal fractions from man. Transplant-quality human liver tissue was obtained from the International Institute for the Advancement of Medicine (Exton, Pa., USA). Microsomes were prepared according to the method described in Biochemical Pharmacology, […], 48, 2147-2156 and stored at −80° C. The concentrations of protein and cytochrome P450 were determined by standard methods described in Journal of Biological Chemistry, 1951, 193, 265-275 and Journal of Biological Chemistry, 1964, 239, 2370-2378.
Microsomal incubations (1.5 ml) were prepared containing 0.5 μM cytochrome P450, 200 mM phosphate buffer (pH 7.4), 0.1 M MgCl2, 0.1 M isocitric acid, 1 unit/ml isocitrate dehydrogenase and 20 mM β-NADP. […] The extracts were evaporated to dryness and analysed by LC-MS/MS (Hewlett Packard HP1100 binary pump, Hypersil HS100 C18, 5 cm by 4.6 mm internal diameter, 5 μm column using a mobile phase of 2 mM ammonium acetate in 90:10 methanol/water, aqueous portion adjusted to pH 4 with glacial acetic acid, and a flowrate of 1 ml/min). […] Disappearance rate constants (k) in human microsomal preparations were determined by linear regression of the log ratio (compound under study/internal standard) versus time. The in vitro human microsomal half-lives were determined according to the equation t1/2=In 2/k. […]

[2] = target: T1, cGMP PDE5 (human corp. cav.) (Homo sapiens, UniProt O76074); experiment: Phosphodiesterase (PDE) inhibitory activity, cGMP PDE5; type: biochemical; conditions: enzyme from human corpus cavernosum
T1 construct: from tissue; host or cells: human corpus cavernosum
Experimental: Compounds of the present invention are potent and selective cGMP PDE5 inhibitors. In vitro PDE inhibitory activities against cyclic guanosine 3′,5′-monophosphate (cGMP) and cyclic adenosine 3′,5′-monophosphate (cAMP) phosphodiesterases were determined by measurement of their IC50 values (the concentration of compound required for 50% inhibition of enzyme activity).
The required PDE enzymes were isolated from a variety of sources, including human corpus cavernosum, human platelets, human cardiac ventricle, human skeletal muscle and human and canine retina, essentially by the method of W. J. Thompson and M. M. Appleman (Biochem., 1971, 10, 311). […]
Assays were performed either using a modification of the “batch” method of W. J. Thompson et al. (Biochem., 1979, 18, 5228) or using a scintillation proximity assay for the direct detection of AMP/GMP using a modification of the protocol described by Amersham plc under product code TRKQ7090/7100. […] Plates were re-sealed and shaken for 20 min, after which the beads were allowed to settle for 30 min in the dark and then counted on a TopCount plate reader (Packard, Meriden, Conn.). Radioactivity units were converted to % activity of an uninhibited control (100%), plotted against inhibitor concentration and inhibitor IC50 values obtained using the ‘Fit Curve’ Microsoft Excel extension or in-house equivalent.

## CCCc1nc(C)c2c(=O)[nH]c(-c3cc(S(=O)(=O)N4CCN(CC)CC4)ccc3OCC)nn12 [Comound A, 2-[2-ethoxy-5-(4-ethyl-piperazin-1-yl-1-sulphonyl)-phenyl]-5-methyl-7-propyl-3H-imidazo[5,1-f][1,2,4]triazin-4-one, reference compound]
[1]
  HLM t1/2: 4 min

## CCCCOc1ncc(C(C)=O)cc1-c1nn2c(CC)nc(C)c2c(=O)[nH]1 [Example 1, 2-(5-Acetyl-2-butoxy-3-pyridinyl)-7-ethyl-5-methylimidazo[5,1-f][1,2,4]triazin-4(3H)-one]
[2]
  IC50: 1.34 nM
[1]; pH 7.4, read-out: HLM t1/2
  half-life at 1 μM: 21 min

## CCCCOc1ncc(C(C)=O)cc1-c1nn2c(CC)nc(CCC)c2c(=O)[nH]1 [Example 2, 2-(5-Acetyl-2-butoxy-3-pyridinyl)-7-ethyl-5-propylimidazo[5,1-f][1,2,4]triazin-4(3H)-one]
[2]
  IC50: 1.96 nM
